The nature of this data set: Agilent ZORBAX 300 SB-C18, 150 × 1 mm, 3.5 µm; A: water + 0.01% heptafluorobutyric acid; B: acetonitrile + 0.01% heptafluorobutyric acid; gradient (min/%B) 0/0 100/90. The conditions noted are these: stereoisomer not certain.
On to `CCCNC(=O)c1c[nH]c2ccccc12`, for which the LC retention time stood at 9.96 min.

Take `CCOc1ccc(C(=O)NNC(=O)COc2ccc(C(C)CC)cc2)cc1` (centres undefined): the LC retention time stood at 15 min.

Consider `CCOC(=O)C1(c2ccccc2)CCN(CCc2ccc(N)cc2)CC1`, for which the LC retention time worked out at 10.1 min.

On to `c1ccc(Nc2ccccc2)cc1`, for which the LC retention time amounted to 15.4 min.

Regarding `OC(Cc1c[nH]c2ccccc12)(c1ccccc1)c1ccccc1`, the LC retention time is 16.1 min.

Regarding `CC(=O)Nc1ccc(Cc2ccncc2)cc1`, the LC retention time turned out to be 7.75 min.

On to `NC(=O)C(N)c1ccccc1` (centres undefined), for which the LC retention time was 6.56 min.

For `Cn1c(=O)c(=O)n(CC(=O)c2ccc3c(c2)CCCC3)c2ccccc21`, the LC retention time turned out to be 14.1 min.

With `Nc1ccc2oc3c(c2c1)CCCC3`, the LC retention time worked out at 9.57 min.

As for `C1=Nc2ccccc2C(c2ccccc2)C1c1ccc2ccccc2n1` (centres undefined), the LC retention time was determined as 11.8 min.

For the compound `CCN(CC)c1ccc(CCN)cc1`, the LC retention time is 8.39 min.

As for `CC(C)(C)NCC(O)COc1nsnc1N1CCOCC1` (centres undefined), the LC retention time was 9.09 min.

On to `c1ccc2c(-n3ccnc3)nccc2c1`, for which the LC retention time stood at 8.37 min.

In the case of `CCN(CC)CC(=O)Nc1c(C)cc(C)cc1C`, the LC retention time came out at 9.28 min.

As for `Cc1ccc2nc(C)[nH]c2c1`, the LC retention time was 8.32 min.

`COC(=O)Cn1c(=O)c2ccccc2n(CC(=O)OC)c1=O`: the LC retention time amounted to 10.7 min.

Consider `CC(=O)Nc1ccccc1N`, for which the LC retention time turned out to be 6.82 min.

Turning to `O=C1CC(N2CCN(Cc3ccccc3)CC2)C(=O)N1Cc1ccccc1` (centres undefined), the LC retention time worked out at 9.91 min.

As to `Cc1ccc2nc(C)cc(C(=O)O)c2c1`, the LC retention time is 6.16 min.

For the compound `Cc1c(N)cc(N)cc1NC(=O)c1ccccc1`, the LC retention time amounted to 8.28 min.

Regarding `Cc1ccccc1-n1nnnc1-c1ccc(-c2nnnn2-c2ccccc2C)cc1`, the LC retention time amounted to 15.3 min.

As for `Cc1cc(C)cc(-c2nnc(-c3ccc(-c4ccccc4)cc3)o2)c1`, the LC retention time came out at 20.5 min.

Consider `CC1=NN(Cc2c[nH]c3ccccc23)C(C)(C)C1`, for which the LC retention time was found to be 9.37 min.

In the case of `N=C(N=C(N)N)N1CCSCC1`, the LC retention time amounted to 7.17 min.

Turning to `CC1(C)CC(=O)c2cc3c(nc2C1)CC(C)(C)CC3=O`, the LC retention time was 13.2 min.

Consider `NCCCOc1ccccc1`, for which the LC retention time was 8.2 min.

Turning to `CCc1nc2ccccc2[nH]1`, the LC retention time is 7.88 min.

As to `COc1cc(C(=O)Nc2ccc(N3CCCC3=O)cc2)cc(OC)c1OC`, the LC retention time amounted to 10.8 min.

As for `c1ccc(CC2CCN(Cc3ccccn3)CC2)cc1`, the LC retention time turned out to be 10.1 min.

`CC(C)=C(NC(=O)c1ccccc1)C(=O)NCCc1c(C)[nH]c2ccccc12`: the LC retention time was determined as 12.3 min.

Turning to `OCCNC1CCCCC1`, the LC retention time is 7.24 min.

As for `CCC(=O)Nc1ccc(N2CCN(C(=O)C(C)C)CC2)cc1`, the LC retention time amounted to 9.46 min.

Regarding `Cc1cc(C(N)=O)c2ccccc2n1`, the LC retention time amounted to 7 min.

In the case of `CCCCCCCCCCCCCC(N)=O`, the LC retention time turned out to be 19.7 min.

Turning to `CNCC(O)c1cccc(O)c1` (centres undefined), the LC retention time is 7.2 min.

On to `CC1(C)CC(N2CN(C3CCCCC3)CC2=O)CC(C)(C)N1`, for which the LC retention time was determined as 8.03 min.

On to `O=C1NCC2(CCN(CCc3ccccc3)CC2)O1`, for which the LC retention time was determined as 8.72 min.

For `O=C(C=Cc1ccco1)c1ccccc1`, the LC retention time was determined as 14.5 min.

As to `c1ccc(CN2CCN(Cc3ccncc3)CC2)nc1`, the LC retention time amounted to 7.31 min.

For the compound `Nc1ccc2ncc(=O)[nH]c2c1`, the LC retention time came to 6.59 min.

`COC1N(c2ccccc2)N=C(c2ccccc2)N1c1ccccc1` (centres undefined): the LC retention time turned out to be 16.8 min.

On to `NC1Cc2ccccc2NC1=O` (centres undefined), for which the LC retention time was 7.26 min.

With `O=C(O)CNC(=O)Nc1ccccc1`, the LC retention time came to 7.74 min.

For `O=C(CC1NC(=O)N(C2CCCCC2)C1=O)Nc1cccnc1` (centres undefined), the LC retention time was 9.1 min.

In the case of `COc1ccc(N(C)C(=O)c2cccc(C(=O)N(C)c3ccc(OC)cc3)c2)cc1`, the LC retention time worked out at 12.6 min.

Take `C#CC(C)(C)NC(=O)CCCCCN1C(=O)c2ccccc2C1=O`: the LC retention time came to 12.2 min.

In the case of `c1ccc(-c2cc3ccccc3[nH]2)cc1`, the LC retention time is 15.8 min.

For the compound `CC(=O)Nc1c(C)cc(C)cc1N`, the LC retention time is 7.92 min.

With `COc1ccccc1NC(=O)c1ccc(COc2ccc3c(c2)CCC3)cc1`, the LC retention time was 19.2 min.

`N=C(N)SCCSCCSC(=N)N`: the LC retention time is 7.21 min.

For the compound `NC(CC(=O)O)c1ccccc1` (centres undefined), the LC retention time stood at 5.59 min.

As for `CC(=NNc1ccccc1)C1=C(C)NC(=O)NC1c1ccccc1` (centres undefined), the LC retention time is 10.8 min.

With `CCc1ccc(NCCC(=O)c2ccc3c(c2)Cc2ccccc2-3)cc1`, the LC retention time came to 16.3 min.

With `Nc1ccccc1NCCOc1ccccc1`, the LC retention time was 11 min.

Regarding `Cn1ccc2cc(C=O)ccc21`, the LC retention time worked out at 11.3 min.

For the compound `CN(C)c1ccc(C=C2Nc3ccccc3C2=O)cc1`, the LC retention time stood at 13.7 min.

For the compound `Nc1nc2ccccc2[nH]1`, the LC retention time worked out at 7.69 min.

In the case of `CC(=O)Nc1ccc(C2=NNC(c3ccccc3)C2)cc1` (centres undefined), the LC retention time was determined as 10.3 min.

With `O=C(NCCCn1c2ccccc2c2ccccc21)Nc1ccccc1`, the LC retention time is 15.8 min.

`CC(C)(N)CO`: the LC retention time was 4.39 min.

As for `CC(=O)c1c(-c2ccccc2)[nH]c2ccccc12`, the LC retention time was determined as 13 min.

For `CN1N=C(C(=O)O)CCC1=O`, the LC retention time amounted to 3.29 min.

Consider `Cc1ccc(-c2cc(-c3ccc(C)cc3)on2)cc1`, for which the LC retention time came to 18.8 min.

Regarding `CCCCN`, the LC retention time worked out at 6.72 min.

With `OCC1CCCN2CCCCC12` (centres undefined), the LC retention time was determined as 6.81 min.

Regarding `CCN(CC)C(=O)N1CCN(c2ccc(N)cc2)CC1`, the LC retention time came to 8.72 min.

On to `Cc1nc(N)cc(=O)[nH]1`, for which the LC retention time amounted to 2.75 min.

On to `O=c1[nH]c(N=NCc2ccccc2O)nnc1Cc1ccccc1`, for which the LC retention time came to 11.4 min.

`Cc1ncc[nH]1`: the LC retention time worked out at 4.53 min.

Consider `O=c1[nH]c2ccccc2[nH]c1=O`, for which the LC retention time is 6.56 min.

Consider `O=C(NC(c1ccccc1)c1ccccc1)c1cccnc1`, for which the LC retention time was 12.1 min.

With `C[N+](C)(C)c1ccccc1`, the LC retention time was 7 min.

Turning to `O=C(CCN1C(=O)c2ccccc2C1=O)Nc1cccc(C(=O)O)c1`, the LC retention time is 10.2 min.

Regarding `CN(C)c1ccncc1`, the LC retention time came out at 7.29 min.

As for `CC1(C)CC(NC(=O)C(=O)NCCc2ccccc2)CC(C)(C)N1`, the LC retention time came to 9.44 min.

With `CCCCc1ccc(-n2c(CCC(=O)O)ccc2-c2ccccc2)cc1`, the LC retention time was 18.1 min.

As for `NC(=S)NN=C1CCCC1`, the LC retention time amounted to 8 min.

In the case of `Nc1ccc2c(c1)CCC2`, the LC retention time amounted to 8.35 min.

For `COc1cc2c(cc1OC)NC(=O)C2`, the LC retention time was 7.73 min.

Consider `CCOC(=O)CN1C(=O)N(C)Cc2ccccc21`, for which the LC retention time worked out at 11.4 min.

For the compound `O=Cc1c(-c2ccccc2)c(C=O)n2ccccc12`, the LC retention time turned out to be 13.9 min.

With `O=C1NC(Cc2c[nH]c3ccccc23)C(=O)NC1Cc1c[nH]c2ccccc12` (centres undefined), the LC retention time is 9.58 min.

On to `S=c1[nH]ccc2ccccc12`, for which the LC retention time was 9.61 min.

For `CN1CCC23CCCCC2C1Cc1ccc(O)cc13` (centres undefined), the LC retention time worked out at 9.18 min.

For `O=C(CC1COc2ccccc2O1)N1CCOCC1` (centres undefined), the LC retention time turned out to be 10.5 min.

Take `COc1ccc2cc3[n+](cc2c1OC)CCc1cc2c(cc1-3)OCO2`: the LC retention time is 10.6 min.

For the compound `CCCCCC[N+](C)(C)Cc1ccccc1`, the LC retention time is 10.7 min.

Consider `OC1CCCc2c1[nH]c1ccccc21` (centres undefined), for which the LC retention time worked out at 11.4 min.

As to `Cc1cc2n(n1)c1cc(C)nn1c1cc(C)nn21`, the LC retention time worked out at 11.1 min.

With `O=C(C=Cc1ccccc1)c1ccc(O)c(O)c1O`, the LC retention time stood at 12.6 min.

For `NC(=O)C1(N2CCCCC2)CCN(C(=O)C2CCCCC2)CC1`, the LC retention time was 8.4 min.

In the case of `CN(C)c1ccc(C=NNC(=O)C(c2ccccc2)c2ccccc2)cc1`, the LC retention time was determined as 15.4 min.

For `Cc1cc(-c2noc(-c3ccco3)n2)c2ccccc2n1`, the LC retention time came to 13.1 min.

Consider `CC1(C)OCOC1=CC[N+](C)(C)C`, for which the LC retention time came out at 7.65 min.

For the compound `CN1CCC(NCc2cccnc2)CC1`, the LC retention time turned out to be 7.19 min.

Regarding `CCN(CC)CCn1cnc2c1c(=O)n(C)c(=O)n2C`, the LC retention time was determined as 7.8 min.

As to `C#CCNC`, the LC retention time was determined as 3.51 min.

With `Cc1ccc(-c2cc(C(=O)O)c3ccccc3n2)cc1`, the LC retention time was found to be 12.4 min.

On to `c1ccc(-c2cnc(-c3ccncc3)o2)cc1`, for which the LC retention time was found to be 11.9 min.

With `CCCCNC(=O)c1c[nH]c2ccccc2c1=O`, the LC retention time amounted to 12.9 min.

In the case of `Cc1[nH]n(-c2ccccc2)c(=O)c1C=O`, the LC retention time was found to be 8.21 min.

Consider `Cc1ccc(N(C)C)cc1`, for which the LC retention time is 8.12 min.

As to `O=C(CN1C(=O)c2ccccc2C1=O)Nc1ccccc1C(=O)N1CCN(c2ccccc2)CC1`, the LC retention time was 13.1 min.

As for `CN(C)CCCNC(=O)C(=O)NC1CC1`, the LC retention time turned out to be 6.89 min.

Take `CN(C)c1ccc(N=C2C=CC(=Nc3ccc(N(C)C)cc3)C=C2)cc1`: the LC retention time was 9.47 min.

`C[N+](C)(C)CC(=O)O`: the LC retention time is 1.67 min.

For `Cc1ccc(C)n1Cc1ccccc1`, the LC retention time was found to be 16.8 min.

As for `CCN(CC)c1ccc(C=Nc2ccccc2)c(O)c1`, the LC retention time is 11.5 min.

`CN(C)C(=O)c1ccccc1`: the LC retention time is 8.98 min.
